Source: patent publication US11173145B2, “Compounds useful as inhibitors of indoleamine 2,3-dioxygenase and/or tryptophan dioxygenase” (Board of Regents, The University of Texas System, priority 2017, dated 2021)

How the values were obtained:
[1] = biological target: T1, mouse IDO1 (Mus musculus, UniProt P28776); assay: Mouse IDO1 cell-based assay (PANC02 cells, mouse IFNgamma-induced, N-formylkynurenine/L-tryptophan by RFMS); conditions: 30 ng/mL mouse IFNgamma, 48 hours
T1 construct: The murine PANC02 pancreatic ductal adenocarcinoma cell line was routinely maintained in DMEM media; endogenous in cells; host or cells: PANC02 murine pancreatic ductal adenocarcinoma cells, induced with mouse IFNgamma
T1 sequence (P28776 whole entry): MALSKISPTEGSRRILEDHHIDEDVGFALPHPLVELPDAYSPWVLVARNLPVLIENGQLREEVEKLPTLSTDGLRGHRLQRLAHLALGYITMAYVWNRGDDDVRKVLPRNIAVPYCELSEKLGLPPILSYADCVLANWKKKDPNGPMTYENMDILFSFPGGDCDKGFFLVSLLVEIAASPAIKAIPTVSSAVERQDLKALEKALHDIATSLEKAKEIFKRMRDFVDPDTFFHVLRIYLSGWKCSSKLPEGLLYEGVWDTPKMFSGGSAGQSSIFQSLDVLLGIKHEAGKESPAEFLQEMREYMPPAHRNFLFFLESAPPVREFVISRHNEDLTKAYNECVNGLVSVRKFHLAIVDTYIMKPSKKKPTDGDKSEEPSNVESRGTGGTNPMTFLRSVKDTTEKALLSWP
Procedure: The murine PANC02 pancreatic ductal adenocarcinoma cell line was routinely maintained in DMEM media containing 10% FBS. Cells (3,000/well) were seeded onto a 384 well plate in 50 μl of media and incubated at 37° C., 5% CO2 overnight. Cell media was aspirated, fresh media containing 30 ng/mL mouse IFNgamma (Gibco Life Technologies, cat #PMC4031) was added, and cells were incubated in absence or presence of various concentrations of compounds (final 0.5% DMSO) for 48 hours at 37° C., 5% CO2. Aliquots of the cell conditioned media was removed from the cell plate, and mixed with equal volume of 200 mM ZnSO4 to precipitate media containing protein. Two volumes of acetonitrile were added by mixing, and samples were then centrifuged at 2250G for 20 minutes at 4° C. Aliquots of the supernatant were diluted 1:10 in 0.1% formic acid containing 3 μM of deuterated Tryptophan as an internal standard.
Samples were analyzed via RFMS to quantify N-Formyl Kynurenine (AUC) and L-tryptophan (AUC). A C18 cartridge was used with mobile phases of 0.1% Formic Acid and 80% ACN/0.1% Formic Acid under isocratic conditions. Dose-response curves were analyzed using IC50 regression curve fitting (GeneData Screener). Curves were plotted as percent of control and normalized by high controls without inhibitor (100%), and low controls (0%) containing 1 μM of epacadostat. Cell viability was also assessed using the Cell Titer Glo Kit (Promega) following manufacture recommendation.

[2] = biological target: T2, IDO1 (Homo sapiens, UniProt P14902); assay: IDO1 cell-based assay (HeLa cells, IFNgamma-induced, N-formylkynurenine/L-tryptophan by RFMS); conditions: 10 ng/mL IFNgamma, 24 hours
T2 construct: endogenous in cells; host or cells: HeLa cells (ATCC), IFNgamma-induced
T2 sequence (P14902 whole entry): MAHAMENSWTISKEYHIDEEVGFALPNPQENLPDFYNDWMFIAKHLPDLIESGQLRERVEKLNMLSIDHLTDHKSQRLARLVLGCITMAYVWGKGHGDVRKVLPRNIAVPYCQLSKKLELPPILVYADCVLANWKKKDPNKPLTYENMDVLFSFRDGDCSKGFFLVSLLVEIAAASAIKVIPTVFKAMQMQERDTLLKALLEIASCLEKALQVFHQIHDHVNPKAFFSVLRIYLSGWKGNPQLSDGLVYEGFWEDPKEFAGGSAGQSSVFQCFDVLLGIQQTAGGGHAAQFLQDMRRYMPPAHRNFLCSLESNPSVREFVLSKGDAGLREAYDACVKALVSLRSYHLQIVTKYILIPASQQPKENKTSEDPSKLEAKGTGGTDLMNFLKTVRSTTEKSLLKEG
Procedure, shortened: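 HeLa cells stimulated with 10 ng/mL IFNgamma and exposed to compound (0.5% DMSO final) for 24 h at 37 °C. Conditioned media deproteinized, then N-formylkynurenine and L-tryptophan quantified by RapidFire MS with deuterated tryptophan internal standard; IC50 by curve fitting. Viability checked by CellTiter-Glo.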

SMILES	IC50 [1]	IC50 [2]
CCC(NC(=O)c1ccc(Cl)cc1)[C@H]1[C@@H]2C[C@@H](n3ncc(-c4ccccc4)n3)C[C@@H]21 (stereo partly drawn) [Compound 204, 4-chloro-N-(1-((1R,3s,5S,6r)-3-(4-phenyl-2H-1,2,3-triazol-2-yl)bicyclo[3.1.0]hexan-6-yl)propyl)benzamide]	500 to 2000 nM	< 200 nM
CCC(NC(=O)c1ccc(Cl)cc1)[C@H]1[C@@H]2C[C@@H](n3cc4cccc(F)c4n3)C[C@@H]21 (stereo partly drawn) [Compound 205, 4-chloro-N-(1-((1R,3s,5S,6r)-3-(7-fluoro-2H-indazol-2-yl)bicyclo[3.1.0]hexan-6-yl)propyl)benzamide]	< 500 nM	< 200 nM
CCC(NC(=O)c1ccc(Cl)cc1)[C@H]1[C@@H]2C[C@@H](n3ncc4cccc(F)c43)C[C@@H]21 (stereo partly drawn) [Compound 206, 4-chloro-N-(1-((1R,3s,5S,6r)-3-(7-fluoro-1H-indazol-1-yl)bicyclo[3.1.0]hexan-6-yl)propyl)benzamide]	500 to 2000 nM	< 200 nM
CCC(NC(=O)c1ccc(Cl)cc1)[C@H]1[C@@H]2C[C@@H](n3ncc4cc(F)ccc43)C[C@@H]21 (stereo partly drawn) [Compound 208, 4-chloro-N-(1-((1R,3s,5S,6r)-3-(5-fluoro-1H-indazol-1-yl)bicyclo[3.1.0]hexan-6-yl)propyl)benzamide]	< 500 nM	< 200 nM
CCC(NC(=O)c1ccc(Cl)cc1)[C@H]1[C@@H]2C[C@@H](n3cc4c(F)cccc4n3)C[C@@H]21 (stereo partly drawn) [Compound 209, 4-chloro-N-(1-((1R,3s,5S,6r)-3-(4-fluoro-2H-indazol-2-yl)bicyclo[3.1.0]hexan-6-yl)propyl)benzamide]	< 500 nM	< 200 nM
CCC(NC(=O)c1ccc(Cl)cc1)[C@H]1[C@@H]2C[C@@H](n3ncc4c(F)cccc43)C[C@@H]21 (stereo partly drawn) [Compound 210, 4-chloro-N-(1-((1R,3s,5S,6r)-3-(4-fluoro-1H-indazol-1-yl)bicyclo[3.1.0]hexan-6-yl)propyl)benzamide]	500 to 2000 nM	< 200 nM
CCC(NC(=O)c1ccc(Cl)cc1)[C@H]1[C@@H]2C[C@@H](n3cc4cccnc4n3)C[C@@H]21 (stereo partly drawn) [Compound 211, N-(1-((1R,3s,5S,6r)-3-(2H-pyrazolo[3,4-b]pyridin-2-yl)bicyclo[3.1.0]hexan-6-yl)propyl)-4-chlorobenzamide]	< 500 nM	< 200 nM
CCC(NC(=O)c1ccc(Cl)cc1)[C@H]1[C@@H]2C[C@@H](n3ncc4cccnc43)C[C@@H]21 (stereo partly drawn) [Compound 212, N-(1-((1R,3s,5S,6r)-3-(1H-pyrazolo[3,4-b]pyridin-1-yl)bicyclo[3.1.0]hexan-6-yl)propyl)-4-chlorobenzamide]	500 to 2000 nM	< 200 nM
CCC(NC(=O)c1ccc(Cl)cc1)[C@H]1[C@@H]2C[C@@H](n3nc4cc(F)cc(F)c4n3)C[C@@H]21 (stereo partly drawn) [Compound 213, 4-chloro-N-(1-((1R,3s,5S,6r)-3-(4,6-difluoro-2H-benzo[d][1,2,3]triazol-2-yl)bicyclo[3.1.0]hexan-6-yl)propyl)benzamide]	500 to 2000 nM	< 200 nM
CCC(NC(=O)c1ccc(Cl)cc1)[C@H]1[C@@H]2C[C@H](n3cc(COC)nn3)C[C@@H]21 (stereo partly drawn) [Compound 214, 4-chloro-N-(1-((1R,3r,5S,6r)-3-(4-(methoxymethyl)-1H-1,2,3-triazol-1-yl)bicyclo[3.1.0]hexan-6-yl)propyl)benzamide]	< 500 nM	< 200 nM
CCC(NC(=O)c1ccc(Cl)cc1)[C@H]1[C@@H]2C[C@H](n3cc(COCCOC)nn3)C[C@@H]21 (stereo partly drawn) [Compound 215, 4-chloro-N-(1-((1R,3r,5S,6r)-3-(4-((2-methoxyethoxy)methyl)-1H-1,2,3-triazol-1-yl)bicyclo[3.1.0]hexan-6-yl)propyl)benzamide]	500 to 2000 nM	200 to 2000 nM
CCOCc1cn([C@H]2C[C@@H]3[C@H](C2)[C@H]3C(CC)NC(=O)c2ccc(Cl)cc2)nn1 (stereo partly drawn) [Compound 216, 4-chloro-N-(1-((1R,3r,5S,6r)-3-(4-(ethoxymethyl)-1H-1,2,3-triazol-1-yl)bicyclo[3.1.0]hexan-6-yl)propyl)benzamide]	< 500 nM	< 200 nM
CCC(NC(=O)c1ccc(Cl)cc1)[C@H]1[C@@H]2C[C@@H](NC(C(=O)O)c3ccccc3)C[C@@H]21 (stereo partly drawn) [Compound 217, 2-(((1R,3s,5S,6r)-6-(1-(4-chlorobenzamido)propyl)bicyclo[3.1.0]hexan-3-yl)amino)-2-phenylacetic acid]	> 5000 nM	> 5000 nM
CCC(NC(=O)c1ccc(Cl)cc1)[C@H]1[C@@H]2C[C@@H](NC(=O)c3ncccc3Cl)C[C@@H]21 (stereo partly drawn) [Compound 218, 3-chloro-N-((1R,3s,5S,6r)-6-(1-(4-chlorobenzamido)propyl)bicyclo[3.1.0]hexan-3-yl)picolinamide]	500 to 2000 nM	< 200 nM
CCC(NC(=O)c1ccc(Cl)cc1)[C@H]1[C@@H]2C[C@H](NC(=O)c3ncccc3F)C[C@@H]21 (stereo partly drawn) [Compound 220, N-((1R,3r,5S,6r)-6-(1-(4-chlorobenzamido)propyl)bicyclo[3.1.0]hexan-3-yl)-3-fluoropicolinamide]	< 500 nM	< 200 nM
CCC(NC(=O)c1ccc(Cl)cc1)[C@H]1[C@@H]2C[C@H](NC(=O)c3ccc(F)cn3)C[C@@H]21 (stereo partly drawn) [Compound 221, N-((1R,3r,5S,6r)-6-(1-(4-chlorobenzamido)propyl)bicyclo[3.1.0]hexan-3-yl)-5-fluoropicolinamide]	< 500 nM	< 200 nM
CCC(NC(=O)c1ccc(Cl)cc1)[C@H]1[C@@H]2C[C@H](NC(=O)c3nccc(C(F)(F)F)c3Cl)C[C@@H]21 (stereo partly drawn) [Compound 222, 3-chloro-N-((1R,3r,5S,6r)-6-(1-(4-chlorobenzamido)propyl)bicyclo[3.1.0]hexan-3-yl)-4-(trifluoromethyl)picolinamide]	500 to 2000 nM	200 to 2000 nM
CCC(NC(=O)c1ccc(Cl)cc1)[C@H]1[C@@H]2C[C@@H](NC(=O)c3cccnc3C)C[C@@H]21 (stereo partly drawn) [Compound 223, N-((1R,3s,5S,6r)-6-(1-(4-chlorobenzamido)propyl)bicyclo[3.1.0]hexan-3-yl)-2-methylnicotinamide]	> 5000 nM	< 200 nM
CCC(NC(=O)c1ccc(Cl)cc1)[C@H]1[C@@H]2C[C@@H](NC(C(=O)NC)c3ccccc3)C[C@@H]21 (stereo partly drawn) [Compound 224, 4-chloro-N-(1-((1R,3s,5S,6r)-3-((2-(methylamino)-2-oxo-1-phenylethyl)amino)bicyclo[3.1.0]hexan-6-yl)propyl)benzamide]	> 5000 nM	2000 to 5000 nM
CCC(NC(=O)c1ccc(Cl)cc1)[C@H]1[C@@H]2C[C@@H](NC(=O)c3cc(C(F)(F)F)ccn3)C[C@@H]21 (stereo partly drawn) [Compound 225, N-((1R,3s,5S,6r)-6-(1-(4-chlorobenzamido)propyl)bicyclo[3.1.0]hexan-3-yl)-4-(trifluoromethyl)picolinamide]	2000 to 5000 nM	< 200 nM
CCC(NC(=O)c1ccc(Cl)cc1)[C@H]1[C@@H]2C[C@@H](Nc3ccccn3)C[C@@H]21 (stereo partly drawn) [Compound 226, 4-chloro-N-(1-((1R,3s,5S,6r)-3-(pyridin-2-ylamino)bicyclo[3.1.0]hexan-6-yl)propyl)benzamide]	< 500 nM	< 200 nM
CCC(NC(=O)c1ccc(Cl)cc1)[C@H]1[C@@H]2C[C@@H](Nc3ccc(F)cn3)C[C@@H]21 (stereo partly drawn) [Compound 227, 4-chloro-N-(1-((R, 3s, 5S, 6r)-3-((5-fluoropyridin-2-yl)amino)bicyclo[3.1.0]hexan-6-yl)propyl)benzamide]	500 to 2000 nM	< 200 nM
CCC(NC(=O)c1ccc(Cl)cc1)[C@H]1[C@@H]2C[C@@H](C(C(=O)O)c3ccccc3)C[C@@H]21 (stereo partly drawn) [Compound 228, 2-((1R,3s, 5S, 6r)-6-(1-(4-chlorobenzamido)propyl)bicyclo[3.1.0]hexan-3-yl)-2-phenylacetic acid]	2000 to 5000 nM	2000 to 5000 nM
CCC(NC(=O)c1ccc(Cl)cc1)[C@H]1[C@@H]2C[C@@H](n3ccc4cc(F)ccc43)C[C@@H]21 (stereo partly drawn) [Compound 229, 4-chloro-N-(1-((1R,3s,5S,6r)-3-(5-fluoro-1H-indol-1-yl)bicyclo[3.1.0]hexan-6-yl)propyl)benzamide]	< 500 nM	< 200 nM
CCC(NC(=O)c1ccc(Cl)cc1)[C@H]1[C@@H]2C[C@@H](n3cc(N4C(=O)c5ccccc5C4=O)nn3)C[C@@H]21 (stereo partly drawn) [Compound 232, 4-chloro-N-(1-((1R,3s,5S,6r)-3-(4-(1,3-dioxoisoindolin-2-yl)-1H-1,2,3-triazol-1-yl)bicyclo[3.1.0]hexan-6-yl)propyl)benzamide]	> 5000 nM	> 5000 nM
